# Assay results reported in US20220160824A1, “COMPOUNDS FOR USE IN THE TREATMENT OF PARKINSON'S DISEASE” (UNIVERSITY OF THE WITWATERSRAND, JOHANNESBURG, priority 2018, published 2022).
# What was measured:
# HEK293 cells = assay: MTT cell viability assay, HEK293 cells treated with α-Synuclein; assay type: cell-based, human; conditions: for cell viability after α-Synuclein treatment: 200 nM and 500 nM
# Text: The effects of treatment of cells with a specific substance or protein on cell viability can be determined by the MTT (3-(4,5-dimethylthiazol-2-yl)-2,5-diphenyltetrazolium bromide) assay (Riss et al., 2016). MTT is a tetrazolium salt that is yellow in colour that is converted to the purple formazan crystals by the mitochondrial enzyme succinate dehydrogenase (Stockert et al., 2012). The succinate dehydrogenase is only active in viable cells and therefore only viable cells will convert MTT to formazan (Stockert et al., 2012). The MTT assay was chosen over other cell viability assays, such as the ATP assay, the resoazurin reduction assay and the protease viability marker assay, due to its high throughput screening. For this study, HEK293 cells were first seeded at 1.4×10^4 cells per well in a 24-well plate while SH-SY5Y cells were seeded at 1.8×10^4 due to a slower growth rate. The cells were then incubated overnight to allow reattachment. Cells were then treated with 200 nM and 500 nM α-Synuclein, in order to induce a PD-like state. Following treatment, the cells were incubated for 48 hours to determine the effects of α-Synuclein on cell viability […]. The known apoptosis inducer, protocatechuic acid (PCA) was used as the positive control. Following incubation, 200 μl of […] was then added to each well and incubated for 2 hours at 37° C. to allow the formation of formazan crystals. The remaining MTT was discarded and the formazan crystals were dissolved by the addition of 200 μl dimethyl sulfoxide (DMSO). The samples were then added to a 96-well plate at 100 μl in duplicates and the absorbance was read at 570 nm using an ELISA plate reader. High absorbance is indicative of a high number of viable cells.
# Statistical evaluation of the data was conducted by performing the […] with a confidence interval of 95% and as a result, results were considered significant when the p-value was lower than 0.05 was considered significant (*p<0.05, **p<0.01 and ***p<0.001) (Johnston, 1970).
# SH-SY5Y cells = assay: MTT cell viability assay, SH-SY5Y cells treated with α-Synuclein; assay type: cell-based; conditions: for cell viability after α-Synuclein treatment: 200 nM and 500 nM
# Text: The HEK293 cell line was used as it is commonly used in Parkinson's disease (PD) research (Schlachetzki et al., 2013). The cell culture media was made up from Dulbecco's Modified Eagle Medium (DMEM) (Hyclone) and Ham's F12 with a ratio of 1:1. The mixture was supplement with 1% penicillin/streptomycin (P/S) and 15% foetal bovine serum […] to create a supplemented media that will provide the cells with essential nutrients that include growth factors and P/S to prevent contamination with bacteria and fungi. The nutrient media was renewed when it was required. The cells were cultured at in an incubator, that maintains the humidity, pH, at 37° C. and 5% CO2 atmospheric composition to mimic in vivo conditions. Once the cells reached a confluency of 80%, they were passaged by washing with phosphate-buffered saline (PBS) followed by resuspension by the addition of trypsin-EDTA. Once the cells were re-suspended media was added to inactivate the trypsin and the cell suspension was diluted into a new flask. Fresh media was added to both flasks. Both transfected and non-transfected cells were harvested for further applications. […] SH-SY5Y cells were also received after transfection was confirmed. The cells were maintained in the same conditions as the HEK293 cells. The SH-SY5Y cells were used for the […] cell viability assay. LRP::FLAG overexpressing HEK293 cells in the presence of 1-Methyl-4-phenylpyridinium iodide (MPP+), a PD inducer, was also investigated. Late stage colorectal carcinoma cells (DLD-1) cells were used for certain confocal microscopy studies with parkin protein.
# The effects of treatment of cells with a specific substance or protein on cell viability can be determined by the MTT (3-(4,5-dimethylthiazol-2-yl)-2,5-diphenyltetrazolium bromide) assay (Riss et al., 2016). […] The samples were then added to a 96-well plate at 100 μl in duplicates and the absorbance was read at 570 nm using an ELISA plate reader. High absorbance is indicative of a high number of viable cells. […]
# [1] = target: 37 kDa/67 kDa laminin receptor precursor/high affinity laminin receptor (LRP/LR) (human) (UniProt P08865); assay: cell-based or functional assay
# Chain of parkin (O60260 whole entry): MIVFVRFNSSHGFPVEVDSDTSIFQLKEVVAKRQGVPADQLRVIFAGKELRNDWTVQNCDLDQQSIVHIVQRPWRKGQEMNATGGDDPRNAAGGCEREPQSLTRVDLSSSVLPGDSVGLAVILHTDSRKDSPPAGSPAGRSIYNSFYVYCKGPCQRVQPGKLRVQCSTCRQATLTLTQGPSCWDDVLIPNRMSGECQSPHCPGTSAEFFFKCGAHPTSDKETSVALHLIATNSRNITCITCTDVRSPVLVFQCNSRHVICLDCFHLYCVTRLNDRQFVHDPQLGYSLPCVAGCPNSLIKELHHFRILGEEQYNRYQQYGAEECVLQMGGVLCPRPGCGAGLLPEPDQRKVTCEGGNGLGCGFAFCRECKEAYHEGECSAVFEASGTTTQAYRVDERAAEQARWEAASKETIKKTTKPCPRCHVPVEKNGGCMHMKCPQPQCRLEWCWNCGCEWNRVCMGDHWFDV
compound,measurement,setting,value
"O=C(O)c1ccc(O)c(O)c1 [PCA, protocatechuic acid]",cell viability with positive control,HEK293 cells; HEK293 transfected and non-transfected cell lines,significant decrease
same,cell viability with positive control,SH-SY5Y cells; SH-SY5Y transfected and non-transfected cell lines,significant decrease
parkin (from UniProt O60260 1-465) (enzyme),"percent of LRP colocalizing with parkin, confocal microscopy, DLD-1 cells overexpressing LRP::FLAG (total LRP stained)",[1],22%
same,"percent of LRP/LR colocalizing with parkin, confocal microscopy, DLD-1 cells",[1],54%
same,"percent of parkin colocalizing with LRP, confocal microscopy, DLD-1 cells overexpressing LRP::FLAG (total LRP stained)",[1],99%
same,"percent of parkin colocalizing with LRP/LR, confocal microscopy, DLD-1 cells",[1],59%
α-Synuclein,cell viability after α-Synuclein treatment,"HEK293 cells; HEK293 non-transfected cells, 48 hours",decreased significantly
same,cell viability after α-Synuclein treatment,HEK293 cells; LRP::FLAG overexpressing and non-transfected HEK293 cells,slight decrease
same,cell viability after α-Synuclein treatment,SH-SY5Y cells; LRP::FLAG overexpressing and non-transfected SH-SY5Y cells,no decrease
same,cell viability after α-Synuclein treatment,"SH-SY5Y cells; SH-SY5Y non-transfected cells, 48 hours",no significant increase or decrease
